Experimental data reported in patent publication US10174053B2, “2 substituted cephem compounds” (Glaxo Group Limited, priority 2012, dated 2019).

Key:
Experiment in all cases: In vitro antimicrobial activity, MIC by broth microdilution (CLSI)
Assay type in all cases: cell-based
A. baumannii JMI2346 = conditions: Acinetobacter baumannii, JMI2346; OXA-51, TEM, ESBL and OXA-type carbapenemase producing strain; 5×10^5 cfu/mL; cation-adjusted Iso-Sensitest broth containing human Apo-transferrin; read-out: Minimum Inhibitory Concentration (MIC) A. baumannii JMI:2346
Method in brief: (§1)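 MIC (μg/mL) by CLSI broth microdilution, inoculum 5×10^5 cfu/mL, in cation-adjusted Iso-Sensitest broth containing human apo-transferrin.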

A. baumannii JMI7 = conditions: Acinetobacter baumannii, JMI7; PER-1, OXA-23, 51, ESBL and OXA-type carbapenemase producing strain; 5×10^5 cfu/mL; cation-adjusted Iso-Sensitest broth containing human Apo-transferrin; read-out: Minimum Inhibitory Concentration (MIC) A. baumannii JMI:7
Method in brief: as §1

E. Coli JMI1890 = conditions: Escherichia coli; PER-1, TEM-1, ESBL producing strain; 5×10^5 cfu/mL; cation-adjusted Iso-Sensitest broth containing human Apo-transferrin; read-out: Minimum Inhibitory Concentration (MIC) E. Coli JMI:1890
Method in brief: as §1

K. pneumoniae SR01358 = conditions: Klebsiella pneumoniae, SR01358; KPC-2, ESBL and KPC-type carbapenemase producing strain; 5×10^5 cfu/mL; cation-adjusted Iso-Sensitest broth containing human Apo-transferrin; read-out: Minimum Inhibitory Concentration (MIC) K. pneumoniae SR01358
Method in brief: as §1

| MIC (A. baumannii JMI2346) [µg/mL] | MIC (A. baumannii JMI7) [µg/mL] | MIC (E. Coli JMI1890) [µg/mL] | MIC (K. pneumoniae SR01358) [µg/mL] | Compound |
| --- | --- | --- | --- | --- |
| 0.5 | 0.25 | 0.063 | ≤ 0.031 | C[C@@H]1S[C@@H]2[C@H](NC(=O)/C(=N\OC(C)(C)C(=O)[O-])c3csc(N)n3)C(=O)N2C(C(=O)[O-])=C1C[N+]12CCC(CC1)N(C(=O)c1c[nH]c3cc(O)c(O)c(Cl)c3c1=O)CC2.[Na+] [Compound I-177, (4S,6R,7R)-7-((Z)-2-(2-aminothiazol-4-yl)-2-(((2-carboxypropan-2-yl)oxy)imino)acetamido)-3-((4-(5-chloro-6,7-dihydroxy-4-oxo-1,4-dihydroquinoline-3-carbonyl)-1,4-diazabicyclo[3.2.2]nonan-1-ium-1-yl)methyl)-4-methyl-8-oxo-5-thia-1-azabicyclo [4.2.0]oct-2-ene-2-carboxylate, Sodium salt] |
| 1 | 0.5 | ≤ 0.031 | ≤ 0.031 | C[C@@H]1S[C@@H]2[C@H](NC(=O)/C(=N\OC(C)(C)C(=O)[O-])c3csc(N)n3)C(=O)N2C(C(=O)[O-])=C1C[N+]12CCC(Cn3[nH]c(=O)c4cc(O)c(O)cc4c3=O)(CC1)C2.[Na+] [Compound I-180] |
